Reference: patent US20140171404A1, “Autotaxin inhibitors” (NOVARTIS AG, priority 2012, published 2014)
Read-outs that look alike come from different tables or passages of the source.

Molecular target: T1, Recombinant human ATX (Homo sapiens, UniProt Q13822)
T1 construct: made in house; host or cells: human embryonic kidney (HEK) cells
Experiment: Assessing ATX inhibition: released choline, Amplex Red fluorescence
Type: biochemical
Protocol: LPC (oleoyl (18:1)) was purchased from Avanti Polar Lipids (Alabaster; AL) and solubilized in methanol to 20 mM. Amplex Red was obtained from Invitrogen Life Technologies (Paisley, UK) and dissolved in DMSO to 10 mM. Choline oxidase and horseradish peroxidase (HRP) were obtained from Sigma Aldrich (Dorset, UK) and dissolved in HBSS to 20 U/ml and 200 U/ml respectively. All reagents were stored at −20° C. in single use aliquots. All experimental measurements were performed in assay buffer made up immediately prior to use (HBSS, 0.01% BSA essentially fatty acid free).
Recombinant human ATX was prepared at Novartis (Basel, CH) in a human embryonic kidney (HEK) cell preparation, and stored in single use aliquots of […] (26 μM) stocks stored at −80° C.
All experimental measurements were performed in black 384 well polystyrene (low volume, round bottom, Corning (3676)) plates. PerkinElmer EnVision (Fluorescence Intensity/Absorbance Monochromator) or Tecan Infinite 200 PRO series plate reader was used to detect change in fluorescent intensity.
ATX activity was determined by measurement of released choline in reactions containing ATX (10 nM), choline oxidase (0.1 U/ml), HRP (100 U/ml), amplex red (50 μM) and LPC 18:1 (10 μM). Compounds of the invention were prepared as 10 point serial dilutions from 1 μM in duplicate and pre-incubated with ATX at 37° C. for 20 minutes prior to the addition of remaining reagents. The liberated choline was measured from changes in fluorescence intensity (λex 530 nm, λem 590 nm) of the product resurofin at 37° C. every 2 minutes over a 40-minute period. ATX activity was measured as a slope of the linear portion of the progress curve, typically between 14 to 24 minutes.
Slope data was exported to Graphpad prism (Graphpad software, San Diego, Calif.) where data was fitted to equation 1.
Y=Bottom+(Top−Bottom)/(1+10̂((Log IC50−X)*HillSlope)) Equation 1: […]

[1] = ATX 10 nM, LPC 18:1 10 μM, pre-incubated with ATX at 37° C. for 20 minutes, Table 1, exemplified compounds, read-out: IC50
[2] = same assay, compounds outside the scope of the invention, read-out: IC50

Compound	IC50 [1] [nM]	further results
O=C(NC1CC2CCC(C1)N2C(=O)CCCc1c[nH]nn1)OCc1cc(Cl)cc(Cl)c1 (stereo not drawn) [Example 47, 3,5-Dichlorobenzyl (8-(4-(1H-1,2,3-triazol-4-yl)butanoyl)-8-azabicyclo[3.2.1]octan-3-yl)carbamate]	–	IC50: 3160 nM
O=C(NCCC1CN(C(=O)OCc2cc(Cl)cc(Cl)c2)CCO1)c1c[nH]c(=O)o1 (stereo not drawn) [Example 12, 3,5-Dichlorobenzyl 2-(2-(2-oxo-2,3-dihydrooxazole-5-carboxamido)ethyl)morpholine-4-carboxylate]	520	–
O=C(CCc1cc(O)no1)NCC1CCN(C(=O)OCc2cc(Cl)cc(Cl)c2)CC1 [Example 33, 3,5-Dichlorobenzyl 4-((3-(3-hydroxyisoxazol-5-yl)propanamido)methyl)piperidine-1-carboxylate]	131	–
O=C(OCc1cc(Cl)cc(Cl)c1)N1CCC(CCNc2c(O)c(=O)c2=O)CC1 [Example 4]	728	–
Cc1cc(Cl)cc(COC(=O)N2CCC(NC(=O)CCCc3c[nH]nn3)CC2)c1 [Example 56, 3-Chloro-5-methylbenzyl 4-(4-(1H-1,2,3-triazol-4-yl)butanamido)piperidine-1-carboxylate]	10	–
O=C(OCc1cc(Cl)cc(Cl)c1)N1CCC(CCCCCc2c[nH]nn2)CC1 [Example 68, 3,5-Dichlorobenzyl 4-(5-(1H-1,2,3-triazol-4-yl)pentyl)piperidine-1-carboxylate]	318	–
O=C(CCCc1c[nH]nn1)NC1CCN(C(=O)OCc2ccccc2)CC1 [reference compound]	–	IC50 [2]: 1390 nM
O=C(/C=C/c1c[nH]cn1)N1CCN(C2CCN(C(=O)CCc3ccc(C(F)(F)F)cc3)CC2)CC1 [reference compound]	–	IC50 [2]: > 5500 nM
O=C(CCc1cc(O)no1)NC1CCN(C(=O)OCc2cc(Cl)cc(Cl)c2)CC1 [Example 23, 3,5-Dichlorobenzyl 4-(3-(3-hydroxyisoxazol-5-yl)propanamido)piperidine-1-carboxylate]	396	–
CCOc1c(N(C)CCC2CN(C(=O)OCc3cc(Cl)cc(Cl)c3)CCO2)c(=O)c1=O (stereo not drawn) [Example 14, 3,5-Dichlorobenzyl 2-(2-((2-ethoxy-3,4-dioxocyclobut-1-en-1-yl)(methyl)amino)ethyl)morpholine-4-carboxylate]	540	–
N#Cc1cc(Cl)cc(COC(=O)N2CCC(CCCCCc3c[nH]nn3)CC2)c1 [Example 69, 3-Chloro-5-cyanobenzyl 4-(5-(1H-1,2,3-triazol-4-yl)pentyl)piperidine-1-carboxylate]	69	–
O=C(NCCC1CCN(C(=O)/C=C/c2cc(Cl)cc(Cl)c2)CC1)c1c[nH]c(=O)o1 [Example 31, (E)-N-(2-(1-(3-(3,5-Dichlorophenyl)acryloyl)piperidin-4-yl)ethyl)-2-oxo-2,3-dihydrooxazole-5-carboxamide]	387	–
O=C(CCc1cc(O)no1)NCCC1CCN(C(=O)OCc2cc(Cl)cc(Cl)c2)CC1 [Example 22, 3,5-Dichlorobenzyl 4-(2-(3-(3-hydroxyisoxazol-5-yl)propanamido)ethyl)piperidine-1-carboxylate]	586	–
COc1c(N(C)CCC2CCN(C(=O)OCc3cc(Cl)cc(Cl)c3)CC2)c(=O)c1=O [Example 2]	248	–
CN(CCC1CCN(C(=O)OCc2cc(Cl)cc(Cl)c2)CC1)C(=O)c1cc(O)no1 [Example 1, 3,5-Dichlorobenzyl 4-(2-(3-hydroxy-N-methylisoxazole-5-carboxamido)ethyl) piperidine-1-carboxylate]	644	–
CCOc1c(NCCC2CN(C(=O)OCc3cc(Cl)cc(Cl)c3)CCO2)c(=O)c1=O (stereo not drawn) [Example 11, 3,5-Dichlorobenzyl 2-(2-((2-ethoxy-3,4-dioxocyclobut-1-en-1-yl)amino)ethyl)morpholine-4-carboxylate]	51	–
O=C(CCCc1c[nH]nn1)NC1CCN(C(=O)OCc2cc(F)cc(Cl)c2)CC1 [Example 37, 3-Chloro-5-fluorobenzyl 4-(4-(1H-1,2,3-triazol-4-yl)butanamido)piperidine-1-carboxylate]	55	–
CN(CCC1CCN(C(=O)OCc2cc(Cl)cc(Cl)c2)CC1)C(=O)c1noc(=O)[nH]1 [Example 28, 3,5-Dichlorobenzyl 4-(2-(N-methyl-5-oxo-4,5-dihydro-1,2,4-oxadiazole-3-carboxamido)ethyl)piperidine-1-carboxylate]	786	–
O=C(/C=C/c1c[nH]cn1)NC1CCN(C(=O)OCc2cc(Cl)cc(Cl)c2)CC1 [Example 9, (E)-3,5-Dichlorobenzyl 4-(3-(1H-imidazol-4-yl)acrylamido)piperidine-1-carboxylate]	109	–
O=C(O)CCCCC(=O)NC1CCN(C(=O)OCc2cc(Cl)cc(Cl)c2)CC1 [Example 10, 6-((1-(((3,5-Dichlorobenzyl)oxy)carbonyl)piperidin-4-yl)amino)-6-oxohexanoic acid]	543	–

More lines, main results first:

IC50 [1] [nM]	Compound	further results
8	N#Cc1cc(Cl)cc(COC(=O)N2CCC(NC(=O)CCCc3c[nH]nn3)CC2)c1 [Example 44, 3-Chloro-5-cyanobenzyl 4-(4-(1H-1,2,3-triazol-4-yl)butanamido)piperidine-1-carboxylate]	–
28	O=C(Cc1c[nH]nn1)NCCC1CCN(C(=O)OCc2cc(Cl)cc(Cl)c2)CC1 [Example 7, 3,5-Dichlorobenzyl 4-(2-(2-(1H-1,2,3-triazol-4-yl)acetamido)ethyl)piperidine-1-carboxylate]	–
7	O=C(CCC1CCN(C(=O)OCc2cc(Cl)cc(Cl)c2)CC1)NCc1c[nH]nn1 [Example 60, 3,5-Dichlorobenzyl 4-(3-(((1H-1,2,3-triazol-4-yl)methyl)amino)-3-oxopropyl)piperidine-1-carboxylate]	–
7	N#Cc1cc(COC(=O)N2CCC(NC(=O)CCCc3c[nH]nn3)CC2)cc(Cl)c1Cl [Example 72, 3,4-Dichloro-5-cyanobenzyl 4-(4-(1H-1,2,3-triazol-4-yl)butanamido)piperidine-1-carboxylate]	–
12	O=C(CCCc1c[nH]nn1)NC1CN(C(=O)OCc2cc(Cl)cc(Cl)c2)C1 [Example 50, 3,5-Dichlorobenzyl 3-(4-(1H-1,2,3-triazol-4-yl)butanamido)azetidine-1-carboxylate]	–
18	O=C(CCCc1cnn[nH]1)NCC1CCN(C(=O)OCc2cc(Cl)cc(Cl)c2)CC1 [Example 41, 3,5-Dichlorobenzyl 4-((4-(1H-1,2,3-triazol-5-yl)butanamido)methyl)piperidine-1-carboxylate]	–
13	Cc1cc(C#N)cc(COC(=O)N2CCC(NC(=O)CCCc3c[nH]nn3)CC2)c1 [Example 71, 3-Cyano-5-methylbenzyl 4-(4-(1H-1,2,3-triazol-4-yl)butanamido)piperidine-1-carboxylate]	–
6	Cc1cc(C)cc(COC(=O)N2CCC(NC(=O)CCCc3c[nH]nn3)CC2)c1 [Example 51, 3,5-Dimethyl benzyl 4-(4-(1H-1,2,3-triazol-4-yl)butanamido)piperidine-1-carboxylate]	–
17	O=C(CCc1cnn[nH]1)NCC1CCN(C(=O)OCc2cc(Cl)cc(Cl)c2)CC1 [Example 57, 3,5-Dichlorobenzyl 4-((3-(1H-1,2,3-triazol-5-yl)propanamido)methyl)piperidine-1-carboxylate]	–
24	O=C(CCCc1c[nH]nn1)NC1CCN(C(=O)OCCc2cc(Cl)cc(Cl)c2)CC1 [Example 59, 3,5-Dichlorophenethyl 4-(4-(1H-1,2,3-triazol-4-yl)butanamido)piperidine-1-carboxylate]	–
